# Data as given in US5077204A, “Yeast endopeptidase for basic amino-acid site cleavage, preparation and use” (Chiron Corporation, priority 1988, dated 1991).
# Peptide text beside a SMILES is read from it. * marks the point of attachment. AMC = Cc1cc(=O)oc2cc(N*)ccc12; βNA = c1ccc2cc(N*)ccc2c1; Cbz = O=C(OCc1ccccc1)*; Boc = CC(C)(C)OC(=O)*
# How the values were obtained:
# Format in all cases: biochemical, S. cerevisiae
# [1] = test system: background activity in membranes of kex2[YEp24] cells; assay: Endopeptidase activity in membranes from kex2 cells transformed with the vector YEp24 alone (background activity)
# Procedure: (§1) Permeabilization of whole yeast cells with the non-ionic detergent Brij 58, preparation of crude membrane fractions, and measurement of protein concentration were conducted by the methods described previously (Julius et al., 1983, supra), incorporated herein by reference. To measure peptidase activity, samples of permeabilized cells or membrane material were added to a reaction mixture containing 0.1-0.5 mM fluorogenic peptide substrate (added from a 20 mM stock dissolved in DMSO) and 200 mM HEPES-Tris (pH 7.0), in a final volume of 0.4 ml. Following incubation for 30 min at 37° C., whole cells were removed by centrifugation in a microfuge (Eppendorf) and membrane material was removed by Ba(OH)2 -ZnSO4 precipitation. The amount of fluorescence formed in the supernatant solution was determined in a fluorescence spectrophotometer (Perkin-Elmer, Model MPF-44B), set either at an excitation wavelength of 335 nm and an emission wavelength of 410 nm (for measurement of β-naphthylamine) or at an excitation wavelength of 380 nm and an emission wavelength of 460 nm (for measurement of 7-amino-4-methyl-coumarin, AMC). To determine the number of moles of substrate hydrolyzed, the fluorescence yield of samples was compared to a standard curve prepared with known concentrations of authentic AMC dissolved in the same buffer.
# (§2) Cells of strain XBH1615A that had been transformed with the plasmids
# (§3) indicated, or that contained pJ2B in integrated form, were grown in SCUra
# (§4) and membranes were prepared as described in the Experimental.
# (§5) Endopeptidase activity was assayed as described in the Experimental. All
# (§6) substrates tested were present at 0.1 mM.
# (§7) Endopeptidase activity was assayed using Boc--GlnArgArg--MCA as the
# (§8) substrate, as outlined in the Experimental. All inhibitors were added fro
# (§9) a 0.1 M stock dissolved in dimethyl sulfoxide. All values given were
# (§10) corrected for the slight effects of addition of this solvent alone.
# [2] = molecular target: T1, KEX2 endopeptidase (kex2[YEp24-pJ2B] membranes) (Saccharomyces cerevisiae, UniProt P13134); assay: Endopeptidase activity in membranes from kex2 cells carrying multicopy plasmid pJ2B (over-produced specific endopeptidase); conditions: for Relative Ratio: kex2[YEp24-pJ2B] relative to kex2[YEp24] = [1.0]; for Rate of hydrolysis, membranes from kex2 cells carrying pJ2B versus membranes from kex2 cells carrying YEp24: membrane fractions, depending on the experiment
# T1 construct: not only includes the KEX2 gene, but also the necessary transcriptional and translational regulatory signals for expression in yeast; expressed in transfected cells; host or cells: S. cerevisiae XBH16-15A (MATalpha kex2-1) carrying YEp24-pJ2B
# T1 sequence (P13134 114-814): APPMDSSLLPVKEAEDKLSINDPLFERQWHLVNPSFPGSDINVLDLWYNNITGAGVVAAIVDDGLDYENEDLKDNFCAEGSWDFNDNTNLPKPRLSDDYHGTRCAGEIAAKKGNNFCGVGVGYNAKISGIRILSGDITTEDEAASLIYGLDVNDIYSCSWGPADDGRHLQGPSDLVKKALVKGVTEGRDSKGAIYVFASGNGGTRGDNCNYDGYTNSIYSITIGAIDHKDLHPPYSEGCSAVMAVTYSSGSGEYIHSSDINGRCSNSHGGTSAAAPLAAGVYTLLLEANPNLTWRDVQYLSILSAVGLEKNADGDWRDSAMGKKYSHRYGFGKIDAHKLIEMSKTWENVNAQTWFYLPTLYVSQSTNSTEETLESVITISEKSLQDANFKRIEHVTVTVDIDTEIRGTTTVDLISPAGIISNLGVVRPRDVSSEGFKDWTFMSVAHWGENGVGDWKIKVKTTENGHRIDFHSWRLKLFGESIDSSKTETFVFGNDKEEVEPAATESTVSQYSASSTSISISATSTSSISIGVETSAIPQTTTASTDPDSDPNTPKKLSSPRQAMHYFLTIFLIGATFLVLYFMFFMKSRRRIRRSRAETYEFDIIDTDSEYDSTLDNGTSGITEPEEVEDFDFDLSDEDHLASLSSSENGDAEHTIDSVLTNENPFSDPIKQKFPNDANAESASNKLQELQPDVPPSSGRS
# Procedure: as §1, §2, §3, §4, §5, §6, §7, §8
# a 0.1 M stock dissolved in dimethyl sulfoxide.
# [3] = molecular target: T2, KEX2 endopeptidase (lysate of XBH16-15A carrying YEp24-pJ2B) (Saccharomyces cerevisiae, UniProt P13134); assay: Release of endopeptidase activity from membranes by detergent treatment
# T2 construct: not only includes the KEX2 gene, but also the necessary transcriptional and translational regulatory signals for expression in yeast; expressed in transfected cells; host or cells: S. cerevisiae XBH16-15A (MATalpha kex2-1) carrying YEp24-pJ2B
# Procedure: as §1
# Strain XBH1615A carrying the KEX2 gene on a multicopy plasmid (YEp24pJ2B)
# was grown to midexponential phase in SCUra. The cells were collected by
# centrifugation and a lysate was prepared as described in the Experimental
# The lysate was divided into two equal portions, one of which was treated
# with the nonionic detergent Triton X100 at a final concentration of 1%.
# Samples of both the original lysate and the detergenttreated lysate were
# saved and the remainder of each was separated into a crude membrane
# fraction (P100) and a soluble fraction (S100) by centrifugation at 100,00
# × g for 1 hr for endopeptidase activity using
# Boc--GlnArgArg--MCA as the substrate, as given in the Experimental.
# [4] = molecular target: T3, KEX2 endopeptidase (kex2::pJ2B membranes) (Saccharomyces cerevisiae, UniProt P13134); assay: Endopeptidase activity in membranes from kex2 cells containing pJ2B in integrated form; conditions: for Relative Ratio: kex2::pJ2B relative to kex2[YEp24] = [1.0]
# T3 construct: not only includes the KEX2 gene, but also the necessary transcriptional and translational regulatory signals for expression in yeast; expressed in transfected cells; host or cells: S. cerevisiae XBH16-15A (MATalpha kex2-1) containing pJ2B in integrated form; crude membranes
# Procedure: as §1, §2, §3, §4, §5, §6, §7, §8, §9, §10
# [5] = molecular target: T4, KEX2 endopeptidase (Brij 58-permeabilized kex2 cells carrying pJ2B) (Saccharomyces cerevisiae, UniProt P13134); assay: Peptidase activity in detergent-permeabilized kex2 cells carrying pJ2B; conditions: for Rate of hydrolysis, kex2 cells carrying pJ2B versus kex2 cells harboring the vector alone: detergent-permeabilized cells; for Rate of hydrolysis relative to the lysine-containing substrate (Boc-GluLysLys-MCA), times faster: detergent-permeabilized kex2 cells carrying pJ2B
# T4 construct: not only includes the KEX2 gene, but also the necessary transcriptional and translational regulatory signals for expression in yeast; expressed in transfected cells; host or cells: S. cerevisiae XBH16-15A (MATalpha kex2-1) carrying YEp24-pJ2B
# Procedure: as §1
# [6] = kex2[YEp24], Triton X-100 1% + 5 mM TPCK, substrate Boc-GlnArgArg-MCA
# [7] = kex2[YEp24], Triton X-100 1%, substrate Boc-GlnArgArg-MCA
# [8] = kex2[YEp24-pJ2B], Triton X-100 1% + 5 mM TPCK, substrate Boc-GlnArgArg-MCA
# [9] = kex2[YEp24-pJ2B], Triton X-100 1%, substrate Boc-GlnArgArg-MCA
# [10] = +1% Triton X-100, P100 crude membrane fraction
# [11] = +1% Triton X-100, S100 soluble fraction
# [12] = kex2::pJ2B, Triton X-100 1% + 5 mM TPCK, substrate Boc-GlnArgArg-MCA
# [13] = kex2::pJ2B, Triton X-100 1%, substrate Boc-GlnArgArg-MCA
# [14] = strain kex2[YEp24], substrate 0.1 mM, membranes
# [15] = strain kex2[YEp24-pJ2B], substrate 0.1 mM, membranes
# [16] = strain kex2::pJ2B, substrate 0.1 mM, membranes
compound,measurement,setting,value
Triton X-100,Inhibition,[1]; [6],76%
same,Specific Activity,[1]; [6],1.2 pmoles/μg/10 min
same,Inhibition,[1]; [7],71%
same,Specific Activity,[1]; [7],1.5 pmoles/μg/10 min
same,Susceptibility of the background activity to inhibition,[1]; kex2 cells transformed with YEp24 alone,greatly reduced
same,Relative Ratio,[2]; Triton X-100 1% + 5 mM TPCK,127.4
same,Inhibition,[2]; [8],0%
same,Specific Activity,[2]; [8],152.9 pmoles/μg/10 min
same,Inhibition,[2]; [9],0%
same,Specific Activity,[2]; [9],155.0 pmoles/μg/10 min
same,Susceptibility of the specific KEX2 endopeptidase to inhibition or inactivation,"[2]; kex2 cells transformed with plasmid pJ2B, comparisons are to the background activity",slightly activated
same,% of Recovery,"[3]; +1% Triton X-100, P100 + S100",94%
same,% of Total,[3]; [10],19%
same,Specific Activity,[3]; [10],50.0 pmoles/μg/10 min
same,% of Total,[3]; [11],75%
same,Specific Activity,[3]; [11],200.0 pmoles/μg/10 min
same,Specific Activity,"[3]; +1% Triton X-100, whole lysate, substrate Boc-GlnArgArg-MCA",265.0 pmoles/μg/10 min
same,Solubilization of the specific KEX2 endopeptidase from membranes,[3]; Triton X-100 at final concentration of 1%,readily solubilized from membranes
same,Relative Ratio,[4]; Triton X-100 1% + 5 mM TPCK,9.4
same,Inhibition,[4]; [12],34%
same,Specific Activity,[4]; [12],11.4 pmoles/μg/10 min
same,Inhibition,[4]; [13],26%
same,Specific Activity,[4]; [13],12.9 pmoles/μg/10 min
"Cc1cc(=O)oc2cc(NC(=O)[C@H](CCCCN)NC(=O)[C@H](CCCCN)NC(=O)[C@H](CCC(=O)O)NC(=O)OC(C)(C)C)ccc12 [Boc--GluLysLys--MCA, Boc-GluLysLys-MCA] (Boc-Glu-Lys-Lys-{AMC})",Specific Activity,[1]; [14],0.3 pmoles AMC formed/μg protein 10
same,Relative Ratio,[2]; substrate 0.1 mM,6.3
same,"Rate of hydrolysis relative to Boc-GlnArgArg-MCA, times more slowly",[2]; membrane fractions of kex2 cells carrying pJ2B,about 50 times
same,"Rate of hydrolysis, membranes from kex2 cells carrying pJ2B versus membranes from kex2 cells carrying YEp24",[2],about six-fold
same,Specific Activity,[2]; [15],1.9 pmoles AMC formed/μg protein 10
same,"Rate of hydrolysis, kex2 cells carrying pJ2B versus kex2 cells harboring the vector alone",[5],six- to ninefold greater
same,Relative Ratio,[4]; substrate 0.1 mM,1.7
same,Specific Activity,[4]; [16],0.5 pmoles AMC formed/μg protein 10
"Cc1cc(=O)oc2cc(NC(=O)[C@H](CCCNC(=N)N)NC(=O)[C@H](CCCNC(=N)N)NC(=O)[C@H](CCC(N)=O)NC(=O)OC(C)(C)C)ccc12 [Boc--GlnArgArg--MCA, Boc-GlnArgArg-7-amino-4-methyl-coumarin] (Boc-Gln-Arg-Arg-{AMC})",Specific Activity,[1]; [14],5.0 pmoles AMC formed/μg protein 10
same,Relative Ratio,[2]; substrate 0.1 mM,20.2
same,"Rate of hydrolysis, membranes from kex2 cells carrying pJ2B versus membranes from kex2 cells carrying YEp24",[2],20- to 35 fold
same,Specific Activity,[2]; [15],100.8 pmoles AMC formed/μg protein 10
same,"Rate of hydrolysis, kex2 cells carrying pJ2B versus kex2 cells harboring the vector alone",[5],six- to ninefold greater
same,"Rate of hydrolysis relative to the lysine-containing substrate (Boc-GluLysLys-MCA), times faster",[5],~30 times
same,Relative Ratio,[4]; substrate 0.1 mM,3.3
same,Specific Activity,[4]; [16],16.7 pmoles AMC formed/μg protein 10
C[C@H](NC(=O)OCc1ccccc1)C(=O)N[C@@H](CCCNC(=N)N)C(=O)N[C@@H](CCCNC(=N)N)C(=O)Nc1ccc2ccccc2c1 [CBZ-AlaArgArg-β-naphthylamide] (Cbz-Ala-Arg-Arg-βNA),"Rate of hydrolysis, kex2 cells carrying pJ2B versus kex2 cells harboring the vector alone",[5],six- to ninefold greater
same,"Rate of hydrolysis relative to the lysine-containing substrate (Boc-GluLysLys-MCA), times faster",[5],~30 times
